Read-outs that look alike come from different tables or passages of the source.
How the values were obtained:
[1] = test system: PLK/DLUC_1C9 tachyzoites in Vero cells; experiment: Primary screening: T. gondii growth assay, Renilla luciferase; assay type: cell-based, Toxoplasma gondii; details: Toxoplasma gondii; 10 μM, 48 h, PLK/DLUC_1C9 in Vero cells; DMSO = 0%, 10 μM pyrimethamine = 100%; read-out: Parasite Inhibition (%)
Procedure: In the primary screening, purified PLK/DLULC_1C9 tachyzoites were incubated with Vero cells at a multiplicity of infection (MOI) of 0.5. After a 2-h incubation, the infected host cells were trypsinized to obtain a cell suspension and then these suspended infected cells were inoculated into 96-well optical bottom plates containing the compound library. Each well was inoculated with 2500 cells in 25 μL of culture medium. […] Following cell inoculation, each well therefore contained 0.5% DMSO and 10 μM compound. After 48 h of culture, Renilla luciferase activity was measured by using Renilla-Glo (Promega, WI, USA) following the manufacturer’s instructions. […] The Z’-value for each plate was calculated from the Renilla luciferase activity in the negative and positive control wells.

[2] = Host cell cytotoxicity assay (Cell-Titer Glo), Vero cells; assay type: cell-based; details: African green monkey; 10 μM, 48 h, Vero cells; DMSO = 100%; read-out: Host Viability (%)
Procedure: (§1) Host cells were treated with compounds at the same concentration used for screening (i.e., 0.5% DMSO and 10 μM compound). Vero cells and HFF cells were both used as host cells because both cell types were used for the parasite screening. After incubation for 48 h in DMEM supplemented with 5% FBS, L-glutamine, penicillin, and streptomycin, cell viabilities were measured by using a Cell-Titer Glo kit (Promega) following the manufacturer’s instructions. Control wells were treated with DMSO alone in culture medium to calculate the 100% viability for each cell type.

[3] = test system: RH-2F tachyzoites (type I strain) in HFF cells; experiment: Confirmatory screening: RH-2F β-galactosidase growth assay in HFF cells; assay type: cell-based, Toxoplasma gondii; details: for IC50: RH-2F in HFF cells, β-galactosidase assay, read-out: IC50 for parasite growth (95% CI)
Procedure: In the confirmatory screening, we utilize an RH strain β-galactosidase reporter parasite termed RH-2F (a type I strain). Briefly, RH-2F parasites were purified from freshly lysed infected host cells and used to infect confluent HFF cells cultured in 96-well plates. Five hundred parasites were added to each well, along with each test compound and 50 μL of culture medium. Plates were then incubated for 10 min at room temperature followed by an incubation at 37°C for 48 h in a CO2 incubator.
(§2) To measure the effects of tanshinone IIA and hydroxyzine on intracellular parasite growth, parasites were allowed to invade for 2 h, uninvaded parasites were washed away, and medium with compounds was added. After 48 h, the plates were frozen at -80°C. Plates were then thawed just prior to the measurement of beta-galactosidase activity. Beta-Glo (Promega) was used to measure β-galactosidase activity following the manufacturer’s instructions.

[4] = Host cell cytotoxicity assay (Cell-Titer Glo), HFF cells; assay type: cell-based, human; details: human, HFF cells, 2.5 μM, 48 h, HFF cells, read-out: Host cell viability (%)
Procedure: as §1, with “Vero” for “Host cells were treated with compounds at the same concentration used for screening (i.e., 0.5% DMSO and 10 μM compound). Vero”

HFF cells [5] = experiment: as above; assay type: cell-based, human; details: 25 μM, 48 h, HFF cells, compared with DMSO
Procedure: as §1, with “Vero” for “Host cells were treated with compounds at the same concentration used for screening (i.e., 0.5% DMSO and 10 μM compound). Vero”

[6] = test system: RH-2F intracellular parasites in HFF cells; experiment: Intracellular parasite growth after invasion (β-galactosidase); assay type: cell-based, Toxoplasma gondii; details: uninvaded parasites washed away, 48 h; 1.0 μM hydroxyzine, 2.5 μM tanshinone IIA, 25 mg/ml DS10
Procedure: as §2

[7] = test system: PLK/DLUC_1C9 parasites in HFF cells; experiment: Bradyzoite differentiation assay, relative BAG1 promoter activity (Dual-Glo); assay type: cell-based, Toxoplasma gondii; details: 1 μM hydroxyzine, 2.5 μM tanshinone IIA; added 24 h after infection, 48 h treatment
Procedure: To measure bradyzoite induction activities of tanshinone IIA and hydroxyzine, PLK/DLUC_1C9 parasites were purified and then inoculated at a concentration of 2.0 x 10^4 parasites/well into 12-well plates containing confluent monolayers of HFF cells. Cells were incubated for 24 h after infection, then compounds were added, and the cells were incubated for 48 h. After incubation, the cells in each well were lysed using 200 μL of Passive Lysis Buffer (Promega) and the lysates were stored at -80°C. For the luciferase assay, 25 μL of lysate was used and the Renilla and firefly luciferase activities were measured by using Dual-Glo (Promega) according to the manufacturer’s instruction.

[8] = test system: PruΔku80Δhxgprt in HFF cells; experiment: Immunofluorescence-based assay on spontaneously induced bradyzoites; assay type: cell-based, Toxoplasma gondii; details: 10, 2, 0.4, 0.08 μM, 48 h; for Bradyzoite differentiation (GFP-positive PV rate): compared with DMSO
Procedure: PruΔku80Δhxgprt, which expresses GFP under the control of a bradyzoite-specific gene LDH2 promoter, [13] was used. HFF host cells were seeded to a 96-well glass bottom plate (MGB096-1-2-LG-L, Brooks Automation, MA, USA) and cultured until confluent. Parasites were freshly lysed by passing them through 27 G needles and were purified by passing them through a 5-μm-pore filter. Five thousand parasites in 100 μL of culture medium were added and mixed with an equal volume of compound-containing medium to give final drug concentrations of 10, 2, 0.4, and 0.08 μM in 0.2% DMSO. After incubation at room temperature for 10 min, the infected host cells were incubated for 48 h at 37°C in a 5% CO2 incubator. After incubation, the cells were fixed with 4% paraformaldehyde in PBS for 20 min, quenched, and permeabilized with 0.2 M glycine and 0.2% TritonX-100 in PBS for 20 min, and then blocked with 3% BSA and 0.1% Tween 20 in PBS (blocking buffer); each procedure was performed at room temperature and was followed by washes with PBS three times. All parasites were stained with an anti-Toxoplasma mouse antibody (antisera produced in ME49-infected mice), and bradyzoites were detected with an anti-GFP rabbit monoclonal antibody (Life Technologies). Secondary antibodies for mouse (Alexa633 conjugated) and rabbit (Alexa488 conjugated) and DAPI were used to develop the fluorescent signal. Stained cells on 96-well plates were analyzed with a CompuCyte iCys Research Imaging Cytometer (Beckman Coulter, IN, USA).

[9] = test system: PLK/DLUC_1C9 in vitro-induced bradyzoites in HFF cells; experiment: Effect on in vitro-induced bradyzoites (Dual-Glo firefly luciferase, BAG1 promoter); assay type: cell-based, Toxoplasma gondii; details: 3 days bradyzoite induction, then 10, 5, 2.5, 1 μM for 48 h; relative to DMSO
Procedure: To measure the effect of tanshinone IIA and hydroxyzine on in vitro-induced bradyzoites, we used PLK/DLUC_ 1C9 parasites and the Dual-Glo luciferase assay. Briefly, HFF cells in 96-well plates were infected with 1 x 10^4 parasites/well and incubated for 3 days with ambient CO2 condition in DMEM containing 25 mM HEPES pH 8.1 and 1% FBS to induce bradyzoites. Induced bradyzoites were treated with 10, 5, 2.5, and 1 μM compounds under bradyzoite-inducing conditions. After 48 h, luciferase activities were measured by using the Dual-Glo assay system (Promega) and normalized by host cell number.

HFF cells [10] = experiment: Host cell viability in bradyzoite differentiation condition; assay type: cell-based, human
Procedure: To evaluate the host cell viability in bradyzoite differentiation condition, HFF cells were incubated for 48 h in DMEM containing 25 mM HEPES pH 8.1 and 1% FBS and measured the viability as described above.

[11] = 2.5 μM, 48 h, RH-2F in HFF, compared with 10 μM pyrimethamine

Row | SMILES | inhibition at 10 µM [1] [%] | viability at 48 h, 10 µM [2] [%] | Parasite inhibition (%) [3, 11] [%] | inhibition at 25 µM ([3]; Toxoplasma gondii, 48 h, RH-2F in HFF, compared with 10 μM pyrimethamine, read-out: Parasite inhibition (%)) [%] | IC50 ([3]; Toxoplasma gondii) [nM] | viability at 48 h, 2.5 µM [4] [%] | Host cell viability (%) (HFF cells [5]) | Host cell viability (%) (HFF cells [5]; listed as hydroxyzine) | Parasite growth when compound added after 2 h invasion window [6] | Relative BAG1 promoter activity (bradyzoite ratio) compared with 5 μM pyrimethamine treatment [7] [%] | Parasite growth (total parasite vacuole size) [8] | Bradyzoite differentiation (GFP-positive PV rate) [8] | Bradyzoite number (firefly luciferase under BAG1 promoter, normalized by host cell number) [9] | Host cell viability under the bradyzoite-inducing condition (HFF cells [10]; pH 8.1) | viability at 10 µM [2] [%] | inhibition at 2.5 µM ([3]; Toxoplasma gondii, HFF, 48 h, 2.5 μM, 48 h, RH-2F in HFF, compared with 10 μM pyrimethamine, read-out: Parasite inhibition (%)) [%] | inhibition at 25 µM ([3]; Toxoplasma gondii, HFF, 48 h, 48 h, RH-2F in HFF, compared with 10 μM pyrimethamine, read-out: Parasite inhibition (%)) [%] | viability at 2.5 µM [4] [%] | Host cell viability under the bradyzoite-inducing condition (HFF cells [10]; HFF, pH 8.1, 1% FBS, 48 h)
1 | OCCOCCN1CCN(C(c2ccccc2)c2ccc(Cl)cc2)CC1 (stereo not shown) [Hydroxyzine] | 97 | 101 | 100 | 107 | 1000 | 102 | 100 | no effect on host cell viability | reduced parasite growth in a dose dependent manner | 0.4 | reduced parasite growth in a concentration-dependent manner | did not induce bradyzoite differentiation even at high concentrations | reduced the bradyzoite number | did not affect the host cell viability |  |  |  |  | 
2 | Cc1coc2c1C(=O)C(=O)c1c-2ccc2c1CCCC2(C)C [Tanshinone IIA] | 91 |  | 55 |  | 2500 |  | 75 |  | reduced parasite growth in a dose dependent manner | 4.7 | reduced parasite growth in a concentration-dependent manner | did not induce bradyzoite differentiation even at high concentrations | reduced the bradyzoite number |  | 83 | > 50 | 112 | 99 | slightly reduced the host cell number
3 | CCc1nc(N)nc(N)c1-c1ccc(Cl)cc1 [Pyrimethamine] |  |  |  |  |  |  |  |  |  |  | reduced parasite growth in a concentration-dependent manner | induced bradyzoite differentiation | cannot reduce bradyzoite numbers |  |  |  |  |  | 

Source: paper PMC5469451, “Identification of compounds that suppress Toxoplasma gondii tachyzoites and bradyzoites” (PLoS ONE, 2017)
